Assays:
Assay in all cases: combination Emax (second highest fraction inhibited in the dose matrix, 72 h); higher = more inhibition; extreme values may be limits of the assay
[1] = system: HCC38 (Breast Carcinoma)
How it was run: (§1)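 Cell lines grown in DMEM/F12 or RPMI with 10% FBS were plated in 1536-well plates and held 24 hours at 37°C, 5% CO2 before 72 hours of exposure to two-drug dose matrices, with DMSO typically at 0.2%. CellTiter-Glo 2.0 luminescence gave viability, which was converted to inhibition. Vehicle wells were set to 0 and blank wells to 1. Combination Emax is the second-highest inhibition in the matrix, and Bliss excess is the observed combination effect minus the expected EA + EB − EA·EB, where EA and EB are the single-agent effects.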

[2] = system: DOK (Oral Cavity Carcinoma)
How it was run: as §1

[3] = system: MES-SA (Other Solid Carcinomas)
How it was run: as §1

[4] = system: HCC-827 (Lung Adenocarcinoma)
How it was run: as §1

[5] = system: SW948 (Colorectal Carcinoma)
How it was run: as §1

[6] = system: WSU-DLCL2 (B-Cell Non-Hodgkin's Lymphoma)
How it was run: as §1

[7] = system: SNG-M (Endometrial Carcinoma)
How it was run: as §1

[8] = system: HCC1143 (Breast Carcinoma)
How it was run: as §1

[9] = system: SKN-3 (Head and Neck Carcinoma)
How it was run: as §1

[10] = system: HCT-116 (Colorectal Carcinoma)
How it was run: as §1

[11] = system: JHH-6 (Hepatocellular Carcinoma)
How it was run: as §1

[12] = system: D-392MG (Glioblastoma)
How it was run: as §1

[13] = system: P31-FUJ (Acute Myeloid Leukemia)
How it was run: as §1

[14] = system: RCC10RGB (Kidney Carcinoma)
How it was run: as §1

[15] = system: SK-UT-1 (Other Solid Carcinomas)
How it was run: as §1

[16] = system: SK-LMS-1 (Other Solid Carcinomas)
How it was run: as §1

[17] = system: EFM-192A (Breast Carcinoma)
How it was run: as §1

[18] = system: NOMO-1 (Acute Myeloid Leukemia)
How it was run: as §1

[19] = system: PA-TU-8902 (Pancreatic Carcinoma)
How it was run: as §1

[20] = system: MEG-01 (Chronic Myelogenous Leukemia)
How it was run: as §1

SMILES	combination Emax [1]	combination Emax [2]	combination Emax [3]	combination Emax [4]	combination Emax [5]	combination Emax [6]	combination Emax [7]	combination Emax [8]	combination Emax [9]	combination Emax [10]	combination Emax [11]	combination Emax [12]	combination Emax [13]	combination Emax [14]	combination Emax [15]	combination Emax [16]	combination Emax [17]	combination Emax [18]	combination Emax [19]	combination Emax [20]
Cc1c2c(nn1C)CSCc1cc(n(C)n1)CSc1cc(c3ccccc3c1)OCCCc1c(C(=O)O)n(C)c3c-2c(Cl)ccc13 [AZD5991] + C[C@@H](Nc1cc(F)cc(F)c1)c1cc(C(=O)N(C)C)cc2c(=O)cc(N3CCOCC3)oc12 [AZD8186] (first compound max 1 µM, 7x7, partner max 3 µM)	0.396	0.459	0.267	0.288	0.345	1	0.311	0.342	0.31	0.248	0.236	0.301	0.959	0.557	0.188	0.453	0.703	0.905	0.173	0.416
CN(CCO)CC[C@H](CSc1ccccc1)Nc1ccc(S(=O)(=O)NC(=O)c2ccc(N3CCC([C@@H](O)c4ccccc4-c4ccc(Cl)cc4)CC3)cc2)cc1S(=O)(=O)C(F)(F)F [AZD4320] + C[C@@H](Nc1cc(F)cc(F)c1)c1cc(C(=O)N(C)C)cc2c(=O)cc(N3CCOCC3)oc12 [AZD8186] (first compound max 1 µM, 7x7, partner max 3 µM)	0.884	0.301	0.297	0.393	0.485	0.978	0.674	0.418	0.277	0.686	0.326	0.649	0.543	0.507	0.273	0.94	0.345	0.636	0.387	0.773
CC1(C)CCC(CN2CCN(c3ccc(C(=O)NS(=O)(=O)c4ccc(NCC5CCOCC5)c([N+](=O)[O-])c4)c(Oc4cnc5[nH]ccc5c4)c3)CC2)=C(c2ccc(Cl)cc2)C1 [Venetoclax] + CCN(CCO)CCCOc1ccc2c(Nc3cc(CC(=O)Nc4cccc(F)c4)[nH]n3)ncnc2c1 [AZD2811] (first compound max 1 µM, 7x7, partner max 1 µM)	0.253	0.313	0.408	0.254	0.799	0.758	0.278	0.318	0.19	0.456	0.193	0.217	0.932	0.212	0.561	0.229	0.212	0.905	0.192	0.799
CCc1c2c(nc3ccc(O)cc13)-c1cc3c(c(=O)n1C2)COC(=O)[C@]3(O)CC [SN-38] + CN(C)CCCOc1ccc(-c2ccc3ncc4c(c3c2)n(C2CCOCC2)c(=O)n4C)cn1 [AZD0156] (first compound max 0.3 µM, 7x7, partner max 1 µM)	0.682	0.488	0.782	0.526	0.746	0.944	0.433	0.662	0.47	0.826	0.326	0.609	0.979	0.689	0.97	0.914	0.174	0.98	0.413	0.73
NC1(C(=O)N[C@@H](CCO)c2ccc(Cl)cc2)CCN(c2ncnc3[nH]ccc23)CC1 [Capivasertib] + C[C@@H]1COCCN1C2=NC(=NC(=C2)C3(CC3)[S@](=N)(=O)C)C4=C5C=CNC5=NC=C4 [AZD6738] (first compound max 10 µM, 7x7, partner max 10 µM)	0.621	0.601	0.721	0.576	0.675	1	0.888	0.725	0.566	0.765	0.506	0.464	0.971	0.469	0.829	0.566	0.581	0.968	0.544	0.945
COc1nnc2ccc(N3CCC(c4ccc(OCCN5CCN(C)C(=O)[C@H]5C)cc4)CC3)nn12 [AZD5153] + C[C@@H]1COCCN1C2=NC(=NC(=C2)C3(CC3)[S@](=N)(=O)C)C4=C5C=CNC5=NC=C4 [AZD6738] (first compound max 1 µM, 7x7, partner max 10 µM)	0.486	0.569	0.763	0.578	0.675	1	0.901	0.824	0.634	0.88	0.705	0.514	0.987	0.572	0.925	0.61	0.524	1	0.392	0.966
C=CCn1c(=O)c2cnc(Nc3ccc(N4CCN(C)CC4)cc3)nc2n1-c1cccc(C(C)(C)O)n1 [AZD1775] + C1CN(CCC1(C(=O)N[C@@H](CCO)C2=CC=C(C=C2)Cl)N)C3=NC=NC4=C3C=CN4 [Capivasertib] (first compound max 3 µM, partner max 3 µM)	0.748	0.754	0.863	0.655	0.799	1	0.83	0.771	0.61	0.667	0.508	0.42	0.999	0.583	0.817	0.635	0.494	0.964	0.527	0.965
COc1cccc(OCCCN)c1-c1cc(Nc2cnc(C#N)cn2)n[nH]1 [Prexasertib] + CCc1c2c(nc3ccc(O)cc13)-c1cc3c(c(=O)n1C2)COC(=O)[C@]3(O)CC [SN-38] (first compound max 1 µM, 7x7, partner max 0.3 µM)	0.753	0.627	0.762	0.749	0.94	1	0.899	0.928	0.885	0.901	0.79	0.551	0.979	0.825	0.982	0.891	0.318	1	0.752	0.94
Cc1cc2ncnn2cc1Nc1ncc2c(n1)n(C1CCOCC1)c(=O)n2C [AZD7648] + C[C@@H]1COCCN1C2=NC(=NC(=C2)C3(CC3)[S@](=N)(=O)C)C4=C5C=CNC5=NC=C4 [AZD6738] (first compound max 10 µM, 7x7, partner max 10 µM)	0.565	0.453	0.632	0.5	0.578	0.905	0.939	0.853	0.185	0.723	0.333	0.52	0.967	0.316	0.757	0.533	0.292	0.961	0.24	0.894
COc1cc2c(cc1OCCCCCOc1cc3c(cc1OC)C(=O)N1C=C(C)C[C@H]1C=N3)N=C[C@@H]1CC(C)=CN1C2=O [SG3199] + O=C(c1cc(Cc2n[nH]c(=O)c3ccccc23)ccc1F)N1CCN(C(=O)C2CC2)CC1 [Olaparib] (first compound max 0.001 µM, 7x7, partner max 10 µM)	0.0919	0.121	0.43	0.131	0.185	0.127	0.159	0.225	0.0527	0.314	0.113	0.111	0.124	0.148	0.046	0.2	0.129	0.145	0.0749	0.111
Cc1cc2ncnn2cc1Nc1ncc2c(n1)n(C1CCOCC1)c(=O)n2C [AZD7648] + CN(C)CCCOc1ccc(-c2ccc3ncc4c(c3c2)n(C2CCOCC2)c(=O)n4C)cn1 [AZD0156] (first compound max 10 µM, 7x7, partner max 1 µM)	0.233	0.249	0.475	0.297	0.545	0.345	0.205	0.242	0.111	0.317	0.279	0.301	0.566	0.3	0.214	0.428	0.374	0.461	0.227	0.361
NC1(C(=O)N[C@@H](CCO)c2ccc(Cl)cc2)CCN(c2ncnc3[nH]ccc23)CC1 [Capivasertib] + COc1nnc2ccc(N3CCC(c4ccc(OCCN5CCN(C)C(=O)[C@H]5C)cc4)CC3)nn12 [AZD5153] (first compound max 10 µM, 7x7, partner max 1 µM)	0.461	0.768	0.621	0.481	0.699	1	0.749	0.325	0.581	0.813	0.645	0.512	1	0.518	0.658	0.609	0.504	1	0.326	0.877
